Data reported in ChEMBL document CHEMBL5154907, “Discovery and Anti-Inflammatory Activity Evaluation of a Novel CDK8 Inhibitor through Upregulation of IL-10 for the Treatment of Inflammatory Bowel Disease In Vivo” (J Med Chem, 2022).
Active and inactive are the calls of the source. The rule behind the calls is not given here.

How the values were obtained:
BMDC [1] = assay: Anti-inflammatory activity against R848-stimulated mouse BMDC cells assessed as upregulation of IL-10 production at 5 uM treated for 24 hrs followed by R848 stimulation for 12 hrs by ELISA method (reference value: 100 %); type: functional; conditions: time 36 hrs
CDK8/Cyclin C = CDK8/Cyclin C (Homo sapiens, UniProt P49336); assay: Inhibition of recombinant full length His tagged human CDK8/Cyclin C expressed in Baculovirus incubated for 60 mins in presence of ATP by ADP-Glo kinase assay
CDK8/Cyclin C, sequence (P49336 whole entry): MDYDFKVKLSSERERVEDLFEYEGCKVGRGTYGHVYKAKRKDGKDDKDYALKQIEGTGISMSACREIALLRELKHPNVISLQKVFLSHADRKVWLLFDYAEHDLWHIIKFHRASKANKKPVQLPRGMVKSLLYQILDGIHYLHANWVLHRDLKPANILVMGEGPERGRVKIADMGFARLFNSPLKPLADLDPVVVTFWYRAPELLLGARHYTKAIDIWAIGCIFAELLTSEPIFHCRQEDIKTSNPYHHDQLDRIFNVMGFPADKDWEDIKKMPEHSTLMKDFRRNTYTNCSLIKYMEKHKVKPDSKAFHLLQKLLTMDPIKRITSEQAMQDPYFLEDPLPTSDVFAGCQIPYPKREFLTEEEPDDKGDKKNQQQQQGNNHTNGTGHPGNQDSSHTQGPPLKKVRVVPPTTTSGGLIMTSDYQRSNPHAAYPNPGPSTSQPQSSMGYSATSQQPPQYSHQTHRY
CDK8/Cyclin C, sequence (P24863 whole entry, further chain): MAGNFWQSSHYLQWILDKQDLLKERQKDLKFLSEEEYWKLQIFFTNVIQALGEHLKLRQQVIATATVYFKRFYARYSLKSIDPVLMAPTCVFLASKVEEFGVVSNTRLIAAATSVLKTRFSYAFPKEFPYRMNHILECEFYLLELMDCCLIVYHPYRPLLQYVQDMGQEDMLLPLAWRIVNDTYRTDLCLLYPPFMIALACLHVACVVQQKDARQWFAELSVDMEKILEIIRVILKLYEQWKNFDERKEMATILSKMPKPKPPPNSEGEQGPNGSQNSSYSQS

[2] = target: Cyclin-dependent kinase 8 (Homo sapiens) (UniProt P49336); assay: Binding affinity to CDK8 in human HCT-116 cells assessed as increase in thermal stability tolerance at 10 uM treated for 4 hrs followed by compound washout by CETSA assay; type: cell-based
Cyclin-dependent kinase 8 (Homo sapiens), sequence (P49336 whole entry): as the sequence (P49336 whole entry) above

[3] = target: Cyclin-dependent kinase 8 (Homo sapiens) (UniProt P49336); assay: Binding affinity to CDK8 in human HCT-116 cells assessed as reduction in protease-induced CDK8 degradation at 1 to 4 uM treated for 6 hrs followed by protease treatment for 30 mins by western blot analysis; type: cell-based; conditions: dose 1-4 µM, time 390.0 min, DDE = dose-dependent effect
BMDC [4] = assay: Anti-inflammatory activity against R848-stimulated mouse BMDC cells assessed as upregulation of IL-10 production by ELISA method; type: functional, cell-based
[5] = target: T1, Cyclin-dependent kinase 8 (Mus musculus) (UniProt Q8R3L8); assay: Inhibition of CDK8 in R848-stimulated mouse BMDC cells assessed as downregulation of c-Jun phosphorylation at Ser243 at 1 to 4 uM treated for 2 hrs followed by R848 stimulation for 12 hrs by western blot analysis; type: cell-based; conditions: dose 1-4 µM, time 14.0 hrs
T1 sequence (whole entry): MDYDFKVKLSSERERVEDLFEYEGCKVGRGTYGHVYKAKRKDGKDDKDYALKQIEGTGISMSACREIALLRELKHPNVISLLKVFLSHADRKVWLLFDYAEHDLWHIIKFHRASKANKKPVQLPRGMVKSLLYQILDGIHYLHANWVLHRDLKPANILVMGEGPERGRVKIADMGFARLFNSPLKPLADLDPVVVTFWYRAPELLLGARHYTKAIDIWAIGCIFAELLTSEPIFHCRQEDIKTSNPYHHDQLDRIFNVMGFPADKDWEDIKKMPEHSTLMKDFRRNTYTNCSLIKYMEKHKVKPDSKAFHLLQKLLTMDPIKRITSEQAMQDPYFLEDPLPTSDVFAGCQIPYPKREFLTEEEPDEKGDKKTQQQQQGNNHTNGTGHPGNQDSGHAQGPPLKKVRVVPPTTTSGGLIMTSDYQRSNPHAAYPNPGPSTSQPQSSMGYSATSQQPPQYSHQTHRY

[6] = target: Myeloid differentiation primary response protein MyD88 (Mus musculus) (UniProt P22366); assay: Inhibition of MyD88 expression in R848-stimulated mouse BMDC cells at 1 to 4 uM treated for 2 hrs followed by R848 stimulation for 12 hrs by western blot analysis; type: cell-based; conditions: dose 1-4 µM, time 14.0 hrs, DDE = dose-dependent effect
Myeloid differentiation primary response protein MyD88 (Mus musculus), sequence (P22366 whole entry): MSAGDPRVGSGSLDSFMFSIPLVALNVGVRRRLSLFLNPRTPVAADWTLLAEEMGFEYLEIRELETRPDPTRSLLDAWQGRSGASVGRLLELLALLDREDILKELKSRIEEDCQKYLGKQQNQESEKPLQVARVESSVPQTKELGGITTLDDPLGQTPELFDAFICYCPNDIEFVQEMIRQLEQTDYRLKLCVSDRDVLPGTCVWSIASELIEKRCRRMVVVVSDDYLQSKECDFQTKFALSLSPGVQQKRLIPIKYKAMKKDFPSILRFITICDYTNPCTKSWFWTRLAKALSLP

BMDC [7] = assay: Inhibition of NF-kappa-B phosphorylation in R848-stimulated mouse BMDC cells at 1 to 4 uM treated for 2 hrs followed by R848 stimulation for 12 hrs by western blot analysis; type: cell-based; conditions: dose 1-4 µM, time 14.0 hrs
BMDC [8] = assay: Inhibition of ERK phosphorylation in R848-stimulated mouse BMDC cells at 1 to 4 uM treated for 2 hrs followed by R848 stimulation for 12 hrs by western blot analysis; type: cell-based; conditions: dose 1-4 µM, time 14.0 hrs
[9] = target: c-Jun N-terminal kinase (Mus musculus) (UniProt Q91Y86+Q9WTU6+Q61831); assay: Inhibition of JNK phosphorylation in R848-stimulated mouse BMDC cells at 1 to 4 uM treated for 2 hrs followed by R848 stimulation for 12 hrs by western blot analysis; type: cell-based; conditions: dose 1-4 µM, time 14.0 hrs
c-Jun N-terminal kinase (Mus musculus), sequence (Q61831 whole entry, looked up): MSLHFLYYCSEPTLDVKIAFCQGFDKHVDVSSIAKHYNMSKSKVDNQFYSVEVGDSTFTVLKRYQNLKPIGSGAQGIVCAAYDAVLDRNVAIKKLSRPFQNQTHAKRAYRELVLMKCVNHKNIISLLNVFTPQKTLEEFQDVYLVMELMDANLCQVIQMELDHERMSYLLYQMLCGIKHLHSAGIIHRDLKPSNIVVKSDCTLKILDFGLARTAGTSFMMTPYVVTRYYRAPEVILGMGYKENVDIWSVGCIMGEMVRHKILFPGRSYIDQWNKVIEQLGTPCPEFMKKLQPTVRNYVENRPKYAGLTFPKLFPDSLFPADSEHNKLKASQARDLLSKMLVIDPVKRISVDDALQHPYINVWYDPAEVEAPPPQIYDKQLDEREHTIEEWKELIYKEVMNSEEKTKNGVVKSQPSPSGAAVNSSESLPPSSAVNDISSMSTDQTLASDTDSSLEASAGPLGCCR
c-Jun N-terminal kinase (Mus musculus), sequence (Q91Y86 whole entry, looked up): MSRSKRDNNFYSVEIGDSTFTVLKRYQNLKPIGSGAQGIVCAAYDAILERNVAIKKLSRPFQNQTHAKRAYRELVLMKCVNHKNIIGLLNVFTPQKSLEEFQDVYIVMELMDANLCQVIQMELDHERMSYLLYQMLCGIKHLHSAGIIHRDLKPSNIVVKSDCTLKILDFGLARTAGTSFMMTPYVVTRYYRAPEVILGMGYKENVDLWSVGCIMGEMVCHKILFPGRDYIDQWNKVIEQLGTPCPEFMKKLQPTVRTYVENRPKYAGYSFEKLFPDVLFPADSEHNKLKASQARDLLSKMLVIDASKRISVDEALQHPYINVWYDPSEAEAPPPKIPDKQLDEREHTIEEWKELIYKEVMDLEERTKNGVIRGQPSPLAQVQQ
c-Jun N-terminal kinase (Mus musculus), sequence (Q9WTU6 whole entry, looked up): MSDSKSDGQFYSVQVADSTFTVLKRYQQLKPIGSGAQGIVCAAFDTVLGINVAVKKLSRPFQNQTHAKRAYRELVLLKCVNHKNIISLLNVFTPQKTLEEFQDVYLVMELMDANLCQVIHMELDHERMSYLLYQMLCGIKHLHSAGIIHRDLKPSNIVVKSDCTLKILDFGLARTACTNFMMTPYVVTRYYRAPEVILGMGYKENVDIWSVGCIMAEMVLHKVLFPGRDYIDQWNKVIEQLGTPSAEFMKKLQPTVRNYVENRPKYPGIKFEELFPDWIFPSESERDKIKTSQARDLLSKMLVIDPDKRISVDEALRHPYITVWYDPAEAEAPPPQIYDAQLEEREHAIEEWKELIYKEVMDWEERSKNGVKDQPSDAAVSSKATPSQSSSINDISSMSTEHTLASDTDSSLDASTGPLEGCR

[10] = target: MAP kinase p38 (Mus musculus) (UniProt P47811+O08911+Q9WUI1+Q9Z1B7); assay: Inhibition of P38 phosphorylation in R848-stimulated mouse BMDC cells at 1 to 4 uM treated for 2 hrs followed by R848 stimulation for 12 hrs by western blot analysis; type: cell-based; conditions: dose 1-4 µM, time 14.0 hrs
[11] = Acute toxicity in 12 hr fasted ICR mouse assessed as body weight loss at 2000 mg/kg, po measured daily for 7 days; type: organism-based; conditions: in vivo, 168 h, time 7 day
[12] = Acute toxicity in 12 hr fasted ICR mouse assessed as effect on heart at 2000 mg/kg, po measured after 7 days by hematoxylin and eosin staining based histopathological analysis; type: organism-based; conditions: in vivo, 168 h, time 7 day
[13] = Acute toxicity in 12 hr fasted ICR mouse assessed as effect on lung at 2000 mg/kg, po measured after 7 days by hematoxylin and eosin staining based histopathological analysis; type: organism-based; conditions: in vivo, 168 h, time 7 day
[14] = Acute toxicity in 12 hr fasted ICR mouse assessed as effect on kidney at 2000 mg/kg, po measured after 7 days by hematoxylin and eosin staining based histopathological analysis; type: organism-based; conditions: in vivo, 168 h, time 7 day
[15] = Stability in human liver microsomes; type: ADME, Microsome
[16] = Half life in Sprague-Dawley rat at 5 mg/kg, iv measured for 3 to 1440 mins by HPLC analysis; type: ADME, organism-based; conditions: in vivo, time 3-1440 min
[17] = MRT in Sprague-Dawley rat at 10 mg/kg, po measured for 3 to 1440 mins by HPLC analysis; type: ADME, organism-based; conditions: in vivo, time 3-1440 min
[18] = AUC (0 to infinity) in Sprague-Dawley rat at 5 mg/kg, iv measured for 3 to 1440 mins by HPLC analysis; type: ADME, organism-based; conditions: in vivo
[19] = AUC (0 to infinity) in Sprague-Dawley rat at 10 mg/kg, po measured for 3 to 1440 mins by HPLC analysis; type: ADME, organism-based; conditions: in vivo
Mus musculus [20] = assay: Anti-inflammatory activity in C57BL/6 mouse model of inflammatory bowel disease assessed as decrease in DSS-induced neutrophil infiltration in colon tissue by measuring MPO activity at 5 to 20 mg/kg, po administered for 10 days; type: functional, organism-based; conditions: dose 5-20 mg/kg, time 10.0 day, DDE = dose-dependent effect
Mus musculus [21] = assay: Anti-inflammatory activity in C57BL/6 mouse model of inflammatory bowel disease assessed as decrease in DSS-induced IL-6 levels in serum at 5 to 20 mg/kg, po daily measured after 10 days by ELISA method; type: functional, organism-based; conditions: dose 5-20 mg/kg, time 10.0 day
Mus musculus [22] = assay: Anti-inflammatory activity in C57BL/6 mouse model of inflammatory bowel disease assessed as decrease in DSS-induced TNF-alpha levels in colon tissue at 5 to 20 mg/kg, po daily measured after 10 days by ELISA method; type: functional, organism-based; conditions: dose 5-20 mg/kg, time 10.0 day
Mus musculus [23] = assay: Anti-inflammatory activity in C57BL/6 mouse model of inflammatory bowel disease assessed as increase in DSS-induced IL-10 levels in colon tissue administered orally daily measured after 10 days by ELISA method; type: functional, organism-based; conditions: dose 5-20 mg/kg, route po, time 10.0 day
Mus musculus [24] = assay: Anti-inflammatory activity in C57BL/6 mouse model of inflammatory bowel disease assessed as reversal of DSS-induced MyD88 expression in colon tissue at 5 to 20 mg/kg, po measured after 10 days by western blot analysis; type: functional, organism-based; conditions: dose 5-20 mg/kg, time 10.0 day
[25] = target: CDK8/Cyclin C (Homo sapiens) (UniProt P49336+P24863); assay: Inhibition of recombinant full length His tagged human CDK8/Cyclin C expressed in Baculovirus at 200 nM incubated for 60 mins in presence of ATP by ADP-Glo kinase assay

## CCc1ccccc1NC(=O)c1cncc(-c2ccc(C(=O)N3CCNCC3)cc2)c1
BMDC [1]
  Activity: 88%
CDK8/Cyclin C
  IC50: 56 nM
[2]
  Activity: Active
[3]
  Activity: Dde
BMDC [4]
  Activity: Active
[5]
  inhibition: Active
[6]
  inhibition: Dde
BMDC [7]
  inhibition: Active
BMDC [8]
  inhibition: Active
[9]
  inhibition: Active
[10]
  inhibition: Active
[11]
  Activity: Non-Toxic
[12]
  Activity: Non-Toxic
[13]
  Activity: Non-Toxic
[14]
  Activity: Non-Toxic
[15]
  Stability: Stable
[16]
  half-life: 1.83 h
[17]
  MRT: 2.03 h
[18]
  AUC(0-inf): 642 ng·h/mL
[19]
  AUC(0-inf): 520 ng·h/mL
Mus musculus [20]
  Activity: Dde
Mus musculus [21]
  Activity: Active
Mus musculus [22]
  Activity: Active
Mus musculus [23]
  Activity: Active
Mus musculus [24]
  Activity: Active
[25]
  inhibition: 85%
